Measured values from PubChem BioAssay AID1918941 (Molecular Pharmacology Branch, DTP, NCI, 2023).
Several values for one entry are separate records, joined by “and”; a condition that tells them apart may be missing. Identical values can stand only once.

Tested on: SW 1271 complex spheroids, viability
Test: Anticancer human tumor SW 1271 cell line growth inhibition [LSD1];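 also: spheroids exposed to agents for 7 days before luminescence read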;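 as to viability, T/C: 100% = DMSO vehicle control viability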
Details: for viability, T/C: stronger effect = lower value
In short: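 Drug combinations with the LSD1 inhibitor iadademstat tested on tumor cells co-cultured as spheroids with endothelial cells and mesenchymal stem cells. Concentrations descended in half-log increments from clinical Cmax or 10 microM.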

[1] = curve of first compound, second compound 0.1 µM
[2] = curve of first compound, second compound 0.316 µM
[3] = curve of first compound, second compound 1 µM
[4] = curve of first compound, second compound 3.16 µM
[5] = curve of first compound, second compound 10 µM
[6] = second compound 0.1 µM, first compound 0.0316 µM
[7] = second compound 0.1 µM, first compound 0.1 µM
[8] = second compound 0.1 µM, first compound 0.316 µM
[9] = second compound 0.1 µM, first compound 1 µM
[10] = second compound 0.1 µM, first compound 3.16 µM
[11] = second compound 0.1 µM, first compound 10 µM
[12] = second compound 0.316 µM, first compound 0.0316 µM
[13] = second compound 0.316 µM, first compound 0.1 µM
[14] = second compound 0.316 µM, first compound 0.316 µM
[15] = second compound 0.316 µM, first compound 1 µM
[16] = second compound 0.316 µM, first compound 3.16 µM
[17] = second compound 0.316 µM, first compound 10 µM
[18] = second compound 1 µM, first compound 0.0316 µM
[19] = second compound 1 µM, first compound 0.1 µM
[20] = second compound 1 µM, first compound 0.316 µM
[21] = second compound 1 µM, first compound 1 µM
[22] = second compound 1 µM, first compound 3.16 µM
[23] = second compound 1 µM, first compound 10 µM
[24] = second compound 3.16 µM, first compound 0.0316 µM
[25] = second compound 3.16 µM, first compound 0.1 µM
[26] = second compound 3.16 µM, first compound 0.316 µM
[27] = second compound 3.16 µM, first compound 1 µM
[28] = second compound 3.16 µM, first compound 3.16 µM
[29] = second compound 3.16 µM, first compound 10 µM
[30] = second compound 10 µM, first compound 0.0316 µM
[31] = second compound 10 µM, first compound 0.1 µM
[32] = second compound 10 µM, first compound 0.316 µM
[33] = second compound 10 µM, first compound 1 µM
[34] = second compound 10 µM, first compound 3.16 µM
[35] = second compound 10 µM, first compound 10 µM

Structure (SMILES): CC(C)c1c(-c2ccccc2)nc2c(C#N)c[nH]n2c1=O + NC1CCC(NC2CC2c2ccccc2)CC1
- IC50 [1]: > 10 µM
- IC50 [2]: > 10 µM
- IC50 [3]: > 10 µM
- IC50 [4]: > 10 µM
- IC50 [5]: > 10 µM
- viability, T/C [6]: 85.7%
- viability, T/C [7]: 80.3%
- viability, T/C [8]: 79.1%
- viability, T/C [9]: 82.8%
- viability, T/C [10]: 71.1%
- viability, T/C [11]: 69.4%
- viability, T/C [12]: 75.2%
- viability, T/C [13]: 89.2%
- viability, T/C [14]: 77.9%
- viability, T/C [15]: 74.2%
- viability, T/C [16]: 68.9%
- viability, T/C [17]: 54.7%
- viability, T/C [18]: 74.1%
- viability, T/C [19]: 74.8%
- viability, T/C [20]: 75.5%
- viability, T/C [21]: 80.1%
- viability, T/C [22]: 68.8%
- viability, T/C [23]: 59.4%
- viability, T/C [24]: 76.6%
- viability, T/C [25]: 73.1%
- viability, T/C [26]: 71.5%
- viability, T/C [27]: 68.8%
- viability, T/C [28]: 71.9%
- viability, T/C [29]: 64.2%
- viability, T/C [30]: 66.7%
- viability, T/C [31]: 60.5%
- viability, T/C [32]: 70.1%
- viability, T/C [33]: 65.5%
- viability, T/C [34]: 65.8%
- viability, T/C [35]: 46.5%

Structure (SMILES): CC1(C)CCC(CN2CCN(c3ccc(C(=O)NS(=O)(=O)c4ccc(NCC5CCOCC5)c([N+](=O)[O-])c4)c(Oc4cnc5[nH]ccc5c4)c3)CC2)=C(c2ccc(Cl)cc2)C1 + NC1CC1c1ccc(-c2cccc(O)c2)cc1
- IC50 [1]: 2.55 µM
- IC50 [2]: 2.97 µM
- IC50 [3]: 2.49 µM
- IC50 [4]: 1.91 µM
- IC50 [5]: 2.1 µM
- viability, T/C [6]: 80.6%
- viability, T/C [7]: 84.3%
- viability, T/C [8]: 91.6%
- viability, T/C [9]: 78.3%
- viability, T/C [10]: 43.4%
- viability, T/C [11]: 1.33%
- viability, T/C [12]: 85.8%
- viability, T/C [13]: 95%
- viability, T/C [14]: 91.8%
- viability, T/C [15]: 85.5%
- viability, T/C [16]: 47.9%
- viability, T/C [17]: 1.12%
- viability, T/C [18]: 91.3%
- viability, T/C [19]: 78.7%
- viability, T/C [20]: 82.4%
- viability, T/C [21]: 80.8%
- viability, T/C [22]: 42%
- viability, T/C [23]: 1.39%
- viability, T/C [24]: 78.4%
- viability, T/C [25]: 81.7%
- viability, T/C [26]: 79%
- viability, T/C [27]: 66.6%
- viability, T/C [28]: 36.7%
- viability, T/C [29]: 1.44%
- viability, T/C [30]: 73.3%
- viability, T/C [31]: 65.6%
- viability, T/C [32]: 64.1%
- viability, T/C [33]: 69.8%
- viability, T/C [34]: 40%
- viability, T/C [35]: 0.32%

Structure (SMILES): COc1ccc([C@@H](O)c2cc(-c3ncnc4cc(N5CCOCC5)ccc34)c(F)cc2Cl)nn1
- viability, T/C (compound 0.0316 µM): 79.9% and 85.5%
- viability, T/C (compound 0.1 µM): 74.7% and 91.9%
- viability, T/C (compound 0.316 µM): 54.5% and 64%
- viability, T/C (compound 1 µM): 40.4% and 45.4%
- viability, T/C (compound 3.16 µM): 31.7% and 28.2%
- viability, T/C (compound 10 µM): 20.3% and 21.4%
- IC50 (curve of compound): 0.523 µM and 0.741 µM

Structure (SMILES): CCc1c2c(nc3ccc(O)cc13)-c1cc3c(c(=O)n1C2)COC(=O)[C@]3(O)CC
- viability, T/C (compound 0.000949 µM): 57.8% and 46.7%
- viability, T/C (compound 0.003 µM): 55.8% and 41.6%
- viability, T/C (compound 0.00949 µM): 23.3% and 28.8%
- viability, T/C (compound 0.03 µM): 7.65% and 6.53%
- viability, T/C (compound 0.0949 µM): 6.15% and 5.62%
- viability, T/C (compound 0.3 µM): 3.93% and 13.3%
- IC50 (curve of compound): 0.00364 µM and < 0.000949 µM

Structure (SMILES): CC(C)CC(NC(=O)CNC(=O)c1cc(Cl)ccc1Cl)B1OC(=O)CC(CC(=O)O)(C(=O)O)O1 (centres undefined) + NC1CCC(NC2CC2c2ccccc2)CC1
- IC50 [1]: 0.00495 µM
- IC50 [2]: 0.00494 µM
- IC50 [3]: 0.00509 µM
- IC50 [4]: 0.00519 µM
- IC50 [5]: 0.00523 µM
- viability, T/C (second compound 0.1 µM, first compound 0.000316 µM): 93.8%
- viability, T/C (second compound 0.1 µM, first compound 0.001 µM): 88.8%
- viability, T/C (second compound 0.1 µM, first compound 0.00316 µM): 78.4%
- viability, T/C (second compound 0.1 µM, first compound 0.01 µM): 5.55%
- viability, T/C [6]: 0.31%
- viability, T/C [7]: 0.44%
- viability, T/C (second compound 0.316 µM, first compound 0.000316 µM): 92.7%
- viability, T/C (second compound 0.316 µM, first compound 0.001 µM): 90%
- viability, T/C (second compound 0.316 µM, first compound 0.00316 µM): 78.1%
- viability, T/C (second compound 0.316 µM, first compound 0.01 µM): 5.75%
- viability, T/C [12]: 0.88%
- viability, T/C [13]: 0.13%
- viability, T/C (second compound 1 µM, first compound 0.000316 µM): 78.5%
- viability, T/C (second compound 1 µM, first compound 0.001 µM): 80.4%
- viability, T/C (second compound 1 µM, first compound 0.00316 µM): 83.8%
- viability, T/C (second compound 1 µM, first compound 0.01 µM): 6.04%
- viability, T/C [18]: 0.34%
- viability, T/C [19]: 0.23%
- viability, T/C (second compound 3.16 µM, first compound 0.000316 µM): 93.7%
- viability, T/C (second compound 3.16 µM, first compound 0.001 µM): 93.9%
- viability, T/C (second compound 3.16 µM, first compound 0.00316 µM): 81.4%
- viability, T/C (second compound 3.16 µM, first compound 0.01 µM): 8.6%
- viability, T/C [24]: 0.51%
- viability, T/C [25]: 0.36%
- viability, T/C (second compound 10 µM, first compound 0.000316 µM): 85.3%
- viability, T/C (second compound 10 µM, first compound 0.001 µM): 79.2%
- viability, T/C (second compound 10 µM, first compound 0.00316 µM): 86.2%
- viability, T/C (second compound 10 µM, first compound 0.01 µM): 6.72%
- viability, T/C [30]: 0.65%
- viability, T/C [31]: 0.38%

Structure (SMILES): O=C(c1cc(Cc2n[nH]c(=O)c3ccccc23)ccc1F)N1CCN(C(=O)C2CC2)CC1 + NC1CCC(NC2CC2c2ccccc2)CC1
- IC50 [1]: > 10 µM
- IC50 [2]: > 10 µM
- IC50 [3]: > 10 µM
- IC50 [4]: > 10 µM
- IC50 [5]: > 10 µM
- viability, T/C [6]: 82%
- viability, T/C [7]: 104%
- viability, T/C [8]: 95.3%
- viability, T/C [9]: 86.2%
- viability, T/C [10]: 82.6%
- viability, T/C [11]: 71.2%
- viability, T/C [12]: 85.7%
- viability, T/C [13]: 91.9%
- viability, T/C [14]: 97.3%
- viability, T/C [15]: 87.7%
- viability, T/C [16]: 81.9%
- viability, T/C [17]: 63.8%
- viability, T/C [18]: 82.7%
- viability, T/C [19]: 105%
- viability, T/C [20]: 91.5%
- viability, T/C [21]: 96.6%
- viability, T/C [22]: 79.8%
- viability, T/C [23]: 71.9%
- viability, T/C [24]: 81.6%
- viability, T/C [25]: 94.7%
- viability, T/C [26]: 101%
- viability, T/C [27]: 83.4%
- viability, T/C [28]: 84%
- viability, T/C [29]: 76.6%
- viability, T/C [30]: 93.8%
- viability, T/C [31]: 95.9%
- viability, T/C [32]: 94.5%
- viability, T/C [33]: 84.2%
- viability, T/C [34]: 78.1%
- viability, T/C [35]: 66.9%
